Data on 6 compounds can be found in patent US20220380368A1, “SPIROCYCLIC ANDROGEN RECEPTOR PROTEIN DEGRADERS” (THE REGENTS OF THE UNIVERSITY OF MICHIGAN, priority 2019, published 2022).

The target of series [1] is T1, AR protein (Homo sapiens, UniProt P10275, T878A).
T1 construct: endogenous in cells; host or cells: LNCaP
T1 sequence (P10275 1-920 T878A): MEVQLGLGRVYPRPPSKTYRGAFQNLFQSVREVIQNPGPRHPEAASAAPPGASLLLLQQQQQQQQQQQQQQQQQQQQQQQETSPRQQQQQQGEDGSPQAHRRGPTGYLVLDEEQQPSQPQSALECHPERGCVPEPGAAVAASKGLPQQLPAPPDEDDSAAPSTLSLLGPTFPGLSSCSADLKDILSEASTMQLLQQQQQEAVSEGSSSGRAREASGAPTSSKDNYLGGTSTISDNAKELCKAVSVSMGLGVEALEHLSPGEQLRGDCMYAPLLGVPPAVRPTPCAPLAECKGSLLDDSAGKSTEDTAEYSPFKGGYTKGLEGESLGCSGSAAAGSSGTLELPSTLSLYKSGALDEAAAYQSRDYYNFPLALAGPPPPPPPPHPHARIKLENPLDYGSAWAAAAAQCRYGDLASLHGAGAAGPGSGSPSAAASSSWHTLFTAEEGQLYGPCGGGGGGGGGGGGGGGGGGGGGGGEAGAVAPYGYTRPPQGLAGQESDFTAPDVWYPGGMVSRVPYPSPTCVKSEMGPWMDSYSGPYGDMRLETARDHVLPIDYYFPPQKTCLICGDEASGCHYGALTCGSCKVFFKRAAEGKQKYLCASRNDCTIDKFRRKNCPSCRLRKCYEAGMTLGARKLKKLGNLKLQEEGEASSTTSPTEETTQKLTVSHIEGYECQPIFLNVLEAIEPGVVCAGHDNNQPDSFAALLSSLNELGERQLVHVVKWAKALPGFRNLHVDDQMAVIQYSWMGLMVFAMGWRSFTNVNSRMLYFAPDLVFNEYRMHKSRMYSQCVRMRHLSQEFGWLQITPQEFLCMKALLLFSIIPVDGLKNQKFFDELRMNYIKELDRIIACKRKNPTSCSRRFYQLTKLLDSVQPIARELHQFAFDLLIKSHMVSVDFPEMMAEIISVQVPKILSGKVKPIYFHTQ
The experiment in a line: Western blotting analysis of AR protein levels in LNCaP cells, band quantification, DC50/DC90. In kind it is cell-based. Conditions: prostate cancer LNCaP cells, 24 h treatment. How it is done:
(§1) The appropriate cell line, e.g., prostate cancer LNCaP, Vcap, or 22RV1 cell line, was treated with Compounds of the Disclosure as indicated. The treated cells were lysed with RIPA buffer. The AR level in the cell lysates was examined by western blotting and a specific AR antibody (ab194196, Abcam, Cambridge, Mass. 02139) with concentration of 1:20,000. GAPDH was used as a loading control.
(§2) Bands were quantified with ImageJ software. The relative numbers of each band obtained from normalization with its corresponding GAPDH level were compared with Prism 8 software. The DC50 values were produced from Prism 8, and the DC90 values were calculated with an equation=Bottom+(Top−Bottom)/(1+10^((Log EC50−X)*HillSlope) based on DC50 and Hillslope values.
(Immunoblotting shows a protein as a band on a membrane.)

Series [2] has as its system AR protein. Description: Western blotting analysis of AR protein levels in 22RV1 cells, band quantification, DC50/DC90. The format is cell-based. Conditions: prostate cancer 22RV1 cells, 24 h treatment. On the procedure:
as §1, §2

In series [3] the target is T2, AR protein (Homo sapiens, UniProt P10275).
T2 construct: endogenous in cells; host or cells: VCaP
T2 sequence (P10275 1-920): T1 sequence (P10275 1-920 T878A) with A878T
Description: Western blotting analysis of AR protein levels in VCaP cells, band quantification, DC50/DC90. In kind it is cell-based. An outline of the steps: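 VCaP cells treated with compounds, lysed in RIPA and probed for AR by Western blot with GAPDH loading control. Band intensities normalised to GAPDH; DC50 from curve fit, DC90 calculated from DC50 and Hill slope via four-parameter equation.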

Series [4] can be described thus: Mouse PK studies after oral and IV dosing. In kind it is in vivo. The note with it: for F: PO 3 mg/kg vs IV 1 mg/kg; for AUC(0-t) / clearance / half-life / Vd / Cmax / Tmax: in vivo; for clearance: read-out: IV Cl (converted); for Vd: read-out: IV VSS. How it is done: The pharmacokinetics of representative Compounds of the Disclosure were determined after oral and IV dosing at the concentrations indicated in mouse (Table 7). […] The vehicles used in these studies are either (i) 10% PEG400+90% PBS (adjusted to pH to 8.0 by 0.5 N NaOH); or (ii) 100% PEG200.

Setting [5] is: calculated from DC50 and Hillslope.
Setting [6] is: iv, 1 mg/kg, IV, dose 1 mg/kg, read-out: IV AUC(0 − t).
Setting [7] is: iv, 1 mg/kg, IV, dose 1 mg/kg, read-out: IV T1/2 (converted).
Where [8] appears, read: po, 3 mg/kg, PO, dose 3 mg/kg, read-out: PO AUC(0 − t).
Where [9] appears, read: po, 3 mg/kg, PO, dose 3 mg/kg, read-out: PO T1/2 (converted).
Where [10] appears, read: VCaP cells, Table 6, read-out: VCaP DC50.

Substitutions are numbered along the chain they refer to. Where two headings read alike, the source gives them in different places.

For `C[C@H]1CC2(CCN(c3ccc(C(=O)N4CCN(C5CN(c6ccc7c(c6)C(=O)N(C6CCC(=O)NC6=O)C7=O)C5)CC4)cc3)CC2)CN1c1ccc(C#N)c(Cl)c1` (stereo partly drawn) [Cpd. No. 293, 2-chloro-4-((3S)-8-(4-(4-(1-(2-(2,6-dioxopiperidin-3-yl)-1,3-dioxoisoindolin-5-yl)azetidin-3-yl)piperazine-1-carbonyl)phenyl)-3-methyl-2,8-diazaspiro[4.5]decan-2-yl)benzonitrile], the DC50 amounted to 0.3 nM on AR protein [1]; 0.14 nM in the series on AR protein [2]; 0.031 nM at AR protein [3] (prostate cancer Vcap cells, 24 h treatment). For the same compound, the DC90 at AR protein [1] (setting [5]) is listed as 0.33 nM; in the series with AR protein [2] (setting [5]), 0.23 nM; on AR protein [3] (prostate cancer Vcap cells, 24 h treatment, calculated from DC50 and Hillslope), 0.41 nM.

By AUC(0-t) is commonly meant exposure summed from dosing to a finite time, without extrapolation to infinity. For orientation: Cmax means the peak of the concentration-time curve. For orientation: Tmax means the time at which the peak concentration occurs. For `C[C@H]1CC2(CCN(c3ccc(C(=O)N4CCC(N5CCN(c6ccc7c(c6)C(=O)N(C6CCC(=O)NC6=O)C7=O)CC5)CC4)cc3F)CC2)CN1c1ccc(C#N)c(Cl)c1` (stereo partly drawn) [Cpd. No. 511, 2-chloro-4-((3S)-8-(4-(4-(4-(2-(2,6-dioxopiperidin-3-yl)-1,3-dioxoisoindolin-5-yl)piperazin-1-yl)piperidine-1-carbonyl)-2-fluorophenyl)-3-methyl-2,8-diazaspiro[4.5]decan-2-yl)benzonitrile], in series [4], the F came out at 28%. Further, the area under the curve AUC(0-t) in series [4] (setting [6]) stood at 9040 ng·h/mL. In series [4] (iv, 1 mg/kg, IV, dose 1 mg/kg), the clearance is 1.67 mL/min/kg and the Vd is 0.9 L/kg. The half-life in series [4] (setting [7]) is 8 h. In series [4] (po, 3 mg/kg), the Cmax came out at 668 ng/mL and the Tmax came to 2.7 h. Besides, the exposure AUC(0-t) in series [4] (setting [8]) was determined as 7520 ng·h/mL. Also, in series [4] (setting [9]), the half-life was 6.4 h. Further, at AR protein [3] (setting [10]), the DC50 was less than 1 nM.

In series [4], `C[C@H]1CC2(CCN(c3ccc(C(=O)N4CCN(C5CCN(c6ccc7c(c6)C(=O)N(C6CCC(=O)NC6=O)C7=O)CC5)CC4)cc3F)CC2)CN1c1ccc(C#N)c(Cl)c1` (stereo partly drawn) [Cpd. No. 521, 2-chloro-4-((3S)-8-(4-(4-(1-(2-(2,6-dioxopiperidin-3-yl)-1,3-dioxoisoindolin-5-yl)piperidin-4-yl)piperazine-1-carbonyl)-2-fluorophenyl)-3-methyl-2,8-diazaspiro[4.5]decan-2-yl)benzonitrile] returned an F of 30%. Moreover, in series [4] (setting [6]), the AUC(0-t) is 2990 ng·h/mL. Further, in series [4] (iv, 1 mg/kg, IV, dose 1 mg/kg), the clearance is 5 mL/min/kg and the Vd worked out at 3.1 L/kg. Besides, the half-life in series [4] (setting [7]) is 8.2 h. For the same compound, in series [4] (po, 3 mg/kg), the highest level (Cmax) was 344 ng/mL and the time of peak concentration (Tmax) stood at 1.7 h. Besides, the AUC(0-t) in series [4] (setting [8]) is 2730 ng·h/mL. The half-life in series [4] (setting [9]) is 7 h. Also, the DC50 on AR protein [3] (setting [10]) was less than 1 nM.

As for `C[C@H]1CC2(CCN(c3ccc(C(=O)N4CCN(C5CCN(c6ccc7c(c6)C(=O)N(C6CCC(=O)NC6=O)C7=O)CC5)CC4)cc3F)CC2)CN1c1ccc(C#N)c(Cl)c1` (stereo partly drawn) [Cpd. No. 522, 2-chloro-4-((3S)-8-(4-(4-(1-(2-(2,6-dioxopiperidin-3-yl)-1,3-dioxoisoindolin-5-yl)piperidin-4-yl)piperazine-1-carbonyl)-2-fluorophenyl)-3-methyl-2,8-diazaspiro[4.5]decan-2-yl)benzonitrile], in series [4] (IV, dose 1 mg/kg), the “IV AUC(0 − t)” value was 1723 ng·h/mL, the “IV Cl” value worked out at 8.3 mL/min/kg, the “IV T1/2” value is 8.6 h and the “IV VSS” value is reported as 4.6 L/kg. Moreover, the F in series [4] came to 33%. In series [4] (PO, dose 3 mg/kg), the “PO AUC(0 − t)” value was found to be 1731 ng·h/mL, the “PO Cmax” value is 196 ng/mL, the “PO T1/2” value is recorded as 6.0 h and the “PO Tmax” value is on record as 2.0 h. Moreover, the DC50 at AR protein [3] (setting [10]) was less than 1 nM.

Take `C[C@H]1CC2(CCN(c3ccc(C(=O)N4CCN(CC5CN(c6ccc7c(c6)C(=O)N(C6CCC(=O)NC6=O)C7=O)C5)CC4)cc3F)CC2)CN1c1ccc(C#N)c(Cl)c1` (stereo partly drawn) [Cpd. No. 528, 2-chloro-4-((3S)-8-(4-(4-((1-(2-(2,6-dioxopiperidin-3-yl)-1,3-dioxoisoindolin-5-yl)azetidin-3-yl)methyl)piperazine-1-carbonyl)-2-fluorophenyl)-3-methyl-2,8-diazaspiro[4.5]decan-2-yl)benzonitrile]: in series [4], the F turned out to be 33%. Also, in series [4] (setting [6]), the AUC(0-t) was 1710 ng·h/mL. Besides, in series [4] (iv, 1 mg/kg, IV, dose 1 mg/kg), the clearance was 8.33 mL/min/kg and the Vd turned out to be 5.7 L/kg. Moreover, the half-life in series [4] (setting [7]) is 8.9 h. For the same compound, in series [4] (po, 3 mg/kg), the Cmax came to 149 ng/mL and the time to peak (Tmax) is 1.7 h. Moreover, the AUC(0-t) in series [4] (setting [8]) is 1680 ng·h/mL. In addition, the half-life in series [4] (setting [9]) is 8.8 h. Besides, at AR protein [3] (setting [10]), the DC50 is less than 1 nM.

For `C[C@H]1CC2(CCN(c3ccc(C(=O)N4CCN(CC5CN(c6ccc7c(c6)C(=O)N(C6CCC(=O)NC6=O)C7=O)C5)CC4)c(F)c3)CC2)CN1c1ccc(C#N)c(Cl)c1` (stereo partly drawn) [Cpd. No. 529, 2-chloro-4-((3S)-8-(4-(4-((1-(2-(2,6-dioxopiperidin-3-yl)-1,3-dioxoisoindolin-5-yl)azetidin-3-yl)methyl)piperazine-1-carbonyl)-3-fluorophenyl)-3-methyl-2,8-diazaspiro[4.5]decan-2-yl)benzonitrile], the F in series [4] was found to be 45%. For the same compound, the exposure AUC(0-t) in series [4] (setting [6]) was found to be 5130 ng·h/mL; in series [4] (setting [8]), 6920 ng·h/mL. In addition, the clearance in series [4] (iv, 1 mg/kg, IV, dose 1 mg/kg) is 3.33 mL/min/kg. For the same compound, the half-life was 10.2 h in series [4] (setting [7]) and 8.5 h in series [4] (setting [9]). Also, the Vd in series [4] (iv, 1 mg/kg, IV, dose 1 mg/kg) amounted to 2.2 L/kg. For the same compound, the peak level in series [4] (po, 3 mg/kg) (Cmax) was 507 ng/mL. The Tmax in series [4] (po, 3 mg/kg) came out at 3.3 h. In addition, the DC50 at AR protein [3] (setting [10]) fell in the range of 1 to 10 nM.
